Test results taken from patent publication US7125881B2, “Use of pyrimidine—or triazine—2 carbonitiles for treating diseases associated with cysteine prostease activity and novel pyrimidine-2-carbonitile derivatives” (AstraZeneca AB, priority 2002, dated 2006).
Structures can show the parent of a compound that is named as a salt.

| Structure (SMILES) | melting point |
| --- | --- |
| COc1c(Nc2ccc(Cl)cc2)nc(C#N)nc1N1CC[C@H](N)C1 (as salt: trifluoroacetate) [Example 46, 4-[(3S)-3-Aminopyrrolidin-1-yl]-6-[(4-chlorophenyl)amino]-5-methoxypyrimidine-2-carbonitrile] | 345 to 347 °C |
| COc1c(Nc2ccc(Cl)cc2)nc(C#N)nc1N1CCOCC1 [Example 45, 4-[(4-Chlorophenyl)amino]-5-methoxy-6-morpholin-4-ylpyrimidine-2-carbonitrile] | 176 °C |
| COc1c(Nc2ccc(Cl)cc2)nc(C#N)nc1N(C)C [Example 48, 4-[(4-Chlorophenyl)amino]-6-(dimethylamino)5-methoxypyrimidine-2-carbonitrile] | 173 °C |
| COc1c(Nc2ccc(Cl)cc2)nc(C#N)nc1N1CCNC(=O)C1 [Example 49, 4-[(4-Chlorophenyl)amino]-5-methoxy-6(3-oxopiperazin-1-yl)pyrimidine-2-carbonitrile] | 244 °C |

Next, values leading:

| melting point | Structure (SMILES) |
| --- | --- |
| 230 °C | COc1c(Nc2ccc(Cl)cc2)nc(C#N)nc1N1CCNCC1 (as salt: trifluoroacetate) [Example 44, 4-[(4-Chlorophenyl)amino]-5-methoxy-6-piperazin-1-ylpyrimidine-2-carbonitrile] |
| 210 to 212 °C | COc1c(Nc2ccc(Cl)cc2)nc(C#N)nc1N1CCN(CCCN(C)C)CC1 (as salt: trifluoroacetate) [Example 47, 4-[(4-Chlorophenyl)amino]-6-{4-[3-(dimethylamino)propyl]piperazin-1-yl}-5-methoxypyrimidine-2-carbonitrile] |
| 253 to 254 °C | N#Cc1nc(Nc2ccc(Cl)cc2)c(N)c(N2CCOCC2)n1 [Example 52, 5-Amino-4-[(4-chlorophenyl)amino]-6-morpholin-4-ylpyrimidine-2-carbonitrile] |
| 211 to 212 °C | CCNc1nc(C#N)nc(Nc2ccc(Cl)cc2)c1N [Example 53, 5-Amino-4[(4-Chlorophenyl)amino]-6(ethylamino)pyrimidine-2-carbonitrile] |
